Values quoted from earlier work in EP4578905A1, “COMPOSITION, PREPARATION METHOD THEREFOR, AND USE THEREOF” (Bloomage Biotechnology Corporation Limited, priority 2022, dated 2024).
Read-outs that look alike come from different tables or passages of the source.

dissociation constant pK (first pK printed): 4.03
dissociation constant pK (second pK printed): 10.56
Compound: NCCCC(=O)O [γ-aminobutyric acid]
